The source of these data is paper PMC8080350, “Rhodanine-3-acetamide derivatives as aldose and aldehyde reductase inhibitors to treat diabetic complications: synthesis, biological evaluation, molecular docking and simulation studies” (BMC Chemistry, 2021).

Read-outs that look alike come from different tables or passages of the source.

In series [1] the target is T1, aldose reductase (ALR2) (Bos taurus, UniProt P16116).
T1 construct: The enzyme aldose reductase was extracted from calf lenses; from tissue; host or cells: calf lenses
In words: ALR2 enzyme inhibition assay. The settings on record: for IC50: substrate D,L-glyceraldehyde, cofactor NADPH, pH 6.2, 340 nm, read-out: ALR2 IC50 ± SEM. The format is biochemical, calf. The method, then: (§1) The newly synthesized of 5-benzylidene rhodanine-3-acetamide derivatives 3(a–g) were evaluated for in vitro enzyme inhibitory potential on aldehyde and aldose reductase enzymes. […] IC50 ± SEM (µM) values were calculated for the compounds showing more than 50% inhibition against both the isozymes, (Table 1).
(§2) All required chemicals used in the enzyme extraction procedure were of high analytical grade. Enzyme inhibitory assay was performed on ELISA microplate reader at 340 nm and 96 well-plates were used for the sample analysis. Micropipettes from Gilson were used for sample loading. Sodium-D-glucoronate and D,L-glyceraldehyde were used as substrates along with a cofactor i.e. NADPH (nicotinamide adenine dinucleotide phosphate) from Sigma Aldrich.
The enzyme aldose reductase was extracted from calf lenses. 200–300 g lenses were added to triple volume of cold water and homogenized for 20 min. The homogenate was then centrifuged at 10,000 rpm for 15 min at 4 °C. The insoluble precipitates were discarded and the supernatant was saturated with 70% ammonium sulfate and after centrifugation at 10,000 rpm at 4 °C for 15 min the supernatant was dialyzed overnight and the protein contents was calculated via Bradford method and the crude aldose reductase was stored at −80 °C [31].
The assay was performed on ELISA (Bio-Tek ELx800™ Instrument, Inc. USA) based spectrophotometric analysis in 96 well plate. The assay mixture was composed of 20 µL buffer (100 mM potassium dihydrogen phosphate pH 6.2), 10 µL test compound (1 mM), 70 µL enzyme and incubated for 10 min at 37 °C followed by addition of 40 µL substrate (D,L-glyceraldehyde 50 mM for ALR2) and 50 µL NADPH (0.5 mM) (nicotinamide adenine dinucleotide phosphate) as a co-factor. After 30 min incubation optical density was measured at 340 nm.
(§3) Results were analyzed by graph pad prism® software to calculate IC50 and percentage inhibition was calculated by the following formula.
(§4) % Inhibition = […].

The target of series [2] is aldehyde reductase (ALR1) (Ovis aries, UniProt A0ACI6RLT8). The experiment in a line: ALR1 enzyme inhibition assay. The settings on record: for selectivity towards ALR1 over ALR2: from IC50 values on ALR1 and ALR2. The format is biochemical, lamb. Here is the method: as §1, §2
Aldehyde reductase enzyme was extracted from lamb kidney and the cortical part was separated carefully. The cortex was homogenized in triple volume of extraction buffer (2.0 mM EDTA, 0.25 M sucrose, 10 mM sodium phosphate and 2.5 mM β-mercaptoethanol at pH 7.2). The homogenate was centrifuged at 12,000 rpm at 4 °C for 30 min, the insoluble precipitates were discarded and the supernatant was saturated with 40%, 50% and 75% ammonium sulfate respectively and after each addition the solution was centrifuged at 12,000 rpm at 4 °C for 30 min, each time the pallet was discarded and for the last saturation the supernatant was taken and dialyzed overnight in extraction buffer. Next day the protein content was calculated via Bradford method and the crude aldehyde reductase was stored at − 80 °C [30].
The assay was performed on ELISA (Bio-Tek ELx800TM Instrument, Inc. USA) based spectrophotometric analysis in 96 well plate. The assay mixture was composed of 20 µL buffer (100 mM potassium dihydrogen phosphate pH 6.2), 10 µL test compound (1 mM), 70 µL enzyme and incubated for 10 min at 37 °C followed by addition of 40 µL Glucoronate 50 mM (as a substrate) and 50 µL (0.5 mM) NADPH (nicotinamide adenine dinucleotide phosphate) as a co-factor. After 30 min incubation optical density was measured at 340 nm.
as §3, §4

Setting [3] is: substrate sodium D-glucuronate, cofactor NADPH, pH 6.2, 340 nm, read-out: ALR1 IC50 ± SEM.

Chain of aldehyde reductase (ALR1) (A0ACI6RLT8 entry or part of it): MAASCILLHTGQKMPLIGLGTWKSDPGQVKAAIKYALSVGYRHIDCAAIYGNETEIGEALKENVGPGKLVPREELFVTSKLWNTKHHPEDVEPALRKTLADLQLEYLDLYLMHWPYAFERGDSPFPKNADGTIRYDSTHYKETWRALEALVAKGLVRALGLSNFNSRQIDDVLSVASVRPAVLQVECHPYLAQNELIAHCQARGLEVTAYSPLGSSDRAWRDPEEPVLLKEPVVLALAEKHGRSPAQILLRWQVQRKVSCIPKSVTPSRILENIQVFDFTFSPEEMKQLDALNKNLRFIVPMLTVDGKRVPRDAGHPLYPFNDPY

What is called IC50 is the point on the concentration scale where inhibition reaches its midpoint. Turning to `CC1=C(CC(=O)O)c2cc(F)ccc2/C1=C\c1ccc([S+](C)[O-])cc1` (centres unmarked) [Sulindac, reference compound], in series [1], the IC50 turned out to be 0.29 ± 0.08 µM.
For the compound `COc1cc(/C=C2\SC(=S)N(CC(=O)Nc3ccc(C(=O)O)c(O)c3)C2=O)ccc1O` [Compound 3c, 2-Hydroxy-4-({[(Z)-5-(4-hydroxy-3-methoxybenzylidene)-4-oxo-2-thioxo-1,3-thiazolidin-3-yl]acetyl}amino)benzoic acid], the 50% inhibitory concentration (IC50) in series [1] amounted to 6.38 ± 0.01 µM; in series [2] (setting [3]) it was 2.38 ± 0.02 µM.
A word on the melting point: it is the temperature, or range, at which the solid turns liquid. On to `COc1cc(/C=C2\SC(=S)N(CC(=O)Nc3ccc(C(=O)O)cc3)C2=O)ccc1O` [Compound 3d, 4-({[(Z)-5-(4-hydroxy-3-methoxybenzylidene)-4-oxo-2-thioxo-1,3-thiazolidin-3-yl]acetyl}amino)benzoic acid], for which the melting point lay in the range of 217 to 219 °C. In series [1], the IC50 turned out to be 7.36 ± 0.02 µM. Further, the “selectivity towards ALR1 over ALR2” value in series [2] is “more selective and potent inhibitors of ALR1”. In addition, the 50% inhibitory concentration (IC50) in series [2] (setting [3]) stood at 3.76 ± 0.09 µM.
As to `CCCC(CCC)C(=O)O` [Valproic acid, reference compound], half-maximal inhibition in series [2] (IC50) was put at 57.4 ± 0.89 µM.
Take `COc1ccc(/C=C2\SC(=S)N(CC(=O)N3CCOCC3)C2=O)cc1` [Compound 3f, (Z) 5-(4-methoxybenzylidene)-3-(2-morpholino-2-oxoethyl)-2-thioxothiazolidin-4-one]: the melting point was in the range of 203 to 205 °C. In series [1] (from IC50 values on ALR1 and ALR2), the “selectivity towards ALR2 over ALR1” value was “selective towards ALR2”. In addition, in series [1], the IC50 is 0.12 ± 0.01 µM. The half-maximal inhibitory concentration (IC50) in series [2] (setting [3]) was 2.18 ± 0.03 µM.
Compound `COc1cc(/C=C2\SC(=S)N(CC(=O)N3CCOCC3)C2=O)ccc1O` [Compound 3b, (Z)-5-(4-hydroxy-3-methoxybenzylidene)-3-(2-morpholino-2-oxoethyl)-2-thioxothiazolidin-4-one] returned a melting point of 211 to 213 °C. Further, the IC50 in series [1] is 19.2 ± 0.08 µM. Also, the IC50 in series [2] (setting [3]) was 6.07 ± 0.05 µM.
As for “(Z) 5-(4-hydroxy-3-methoxybenzylidene)-3-(2-pyrrolidino-2-oxoethyl)-2-thioxothiazolidin-4-one [Compound 3g]”, the half-inhibitory concentration (IC50) in series [1] worked out at 2.42 ± 0.03 µM; in series [2] (setting [3]), 2.22 ± 0.04 µM.
Compound `COc1ccc(/C=C2\SC(=S)N(CC(=O)Nc3ccccc3)C2=O)cc1` [Compound 3e, (Z) 5-(4-methoxybenzylidene)-3-(2-anilino-2-oxoethyl)-2-thioxothiazolidin-4-one] displayed a melting point of 190 to 192 °C. Further, the IC50 in series [1] turned out to be 12.71 ± 0.09 µM. The “selectivity towards ALR1 over ALR2” value in series [2] is “more selective and potent inhibitors of ALR1”. Besides, the concentration for half-maximal inhibition (IC50) in series [2] (setting [3]) stood at 2.87 ± 0.01 µM.
In the case of `COc1cc(/C=C2\SC(=S)N(CC(=O)Nc3ccccc3)C2=O)ccc1O` [Compound 3a, (Z)-5-(4-hydroxy-3-methoxybenzylidene)-3-(2-anilino-2-oxoethyl)-2-thioxothiazolidin-4-one], the values for the concentration for half-maximal inhibition (IC50) in series [1] and in series [2] (setting [3]) were 0.25 ± 0.04 µM and 5.38 ± 0.07 µM, respectively.
